Data as given in ChEMBL document CHEMBL1147201, “Structural requirements of HDAC inhibitors: SAHA analogs functionalized adjacent to the hydroxamic acid” (Bioorg Med Chem Lett, 2007).

These compounds were tested against Histone deacetylase (assay: Inhibition of HDAC by fluorescent assay).
Assay type: protein assay, Homo sapiens

SMILES	IC50
CCCC(CCCCCC(=O)Nc1ccccc1)C(=O)NO (configuration not stated)	154 µM
CCCCC(CCCCCC(=O)Nc1ccccc1)C(=O)NO (configuration not stated)	72 µM
C#CCC(CCCCCC(=O)Nc1ccccc1)C(=O)NO (configuration not stated)	87 µM
CCC(CCCCCC(=O)Nc1ccccc1)C(=O)NO (configuration not stated)	449 µM
CC(CCCCCC(=O)Nc1ccccc1)C(=O)NO (configuration not stated)	134 µM
O=C(CCCCCC(Cc1ccccc1)C(=O)NO)Nc1ccccc1 (configuration not stated)	226 µM
C=CCC(CCCCCC(=O)Nc1ccccc1)C(=O)NO (configuration not stated)	144 µM
